These are literature values, as cited in paper PMC8380238, “Structure-based virtual screening of CYP1A1 inhibitors: towards rapid tier-one assessment of potential developmental toxicants” (Archives of Toxicology, 2021).

Molecules are shown by their SMILES. Structures can show the parent of a compound that is named as a salt.

The subject of the first data set is human CYP1A1. Also on record: unit not given beside the values. Conditions: ToxCast NVS_ADME_hCYP1A1; NA cells left out; ref ToxCast; cited from earlier work.
As for `COC(=O)c1c(Cl)c(Cl)c(C(=O)OC)c(Cl)c1Cl` [Chlorthal-dimethyl], the AC50 is given as -0.9489.

The data set is the same for the next values; noted with them: cited from earlier work.
Turning to `Oc1ccc(C(c2ccc(O)cc2)C(Cl)(Cl)Cl)cc1`, the AC50 is 0.8687.
`C=CCc1cc(S(=O)(=O)c2ccc(O)c(CC=C)c2)ccc1O`: the AC50 is given as 0.2892.
Take `O=c1[nH]sc2ccccc12` [1,2-Benzisothiazolin-3-one]: the AC50 is 0.7251.
As to `Nc1cccc2c(N)cccc12` [1,5-Naphthalenediamine], the AC50 is given as 0.8388.
In the case of `Oc1ccc2ccc3cccc4ccc1c2c34` [1-Hydroxypyrene], the AC50 was 0.4188.
As for `Cc1cc(N=Nc2ccccc2C)ccc1N` [2-Amino-5-azotoluene], the AC50 is reported as 0.8236.
Regarding `Sc1nc2ccccc2s1` [2-Mercaptobenzothiazole], the AC50 is reported as -0.7864.
With `COc1cc(-c2ccc(N)c(OC)c2)ccc1N` [3,3'-Dimethoxybenzidine], the AC50 is listed as 0.5453.
For the compound `Oc1ccc2c(c1)-c1ccccc1C2` [3-Hydroxyfluorene], the AC50 was 0.7484.
As to `CN(C)c1ccc(Cc2ccc(N(C)C)cc2)cc1` [4,4'-Methylenebis(N,N-dimethylaniline)], the AC50 is listed as 0.5763.
In the case of `CCCCCCCCn1sc(Cl)c(Cl)c1=O` [4,5-Dichloro-2-octyl-3(2H)-isothiazolone], the AC50 was 0.9038.
With `Oc1cc2ccccc2c2ccccc12` [9-Phenanthrol], the AC50 was 0.7409.
Regarding `CSC(C)(C)C=NO` [Aldicarb oxime], the AC50 is 0.7517.
For the compound `CCNc1nc(Cl)nc(NC(C)C)n1` [Atrazine], the AC50 is on record as 0.9162.
As to `COP(=S)(OC)SCn1nnc2ccccc2c1=O` [Azinphos-methyl], the AC50 was -0.4803.
For the compound `O=C(Nc1ccccc1)c1ccccc1I` [Benodanil], the AC50 is -1.884.
With `Nc1ccc(-c2ccc(N)cc2)cc1` [Benzidine], the AC50 was 0.5505.
In the case of `COc1ccc(-c2ccccc2)cc1NNC(=O)OC(C)C` [Bifenazate], the AC50 was -0.1841.
With `O=[N+]([O-])C(Br)(CO)CO` [Bronopol], the AC50 is on record as 0.9179.
For the compound `CC(C)(O)c1coc(S(=O)(=O)NC(=O)Nc2c3c(cc4c2CCC4)CCC3)c1` [CP-456773], the AC50 is listed as -1.144.
Turning to `CCCCN(CCCC)SN(C)C(=O)Oc1cccc2c1OC(C)(C)C2` [Carbosulfan], the AC50 is reported as 0.7573.
Consider `CCOC(=O)C(Cl)Cc1cc(-n2nc(C)n(C(F)F)c2=O)c(F)cc1Cl` (centres unmarked) [Carfentrazone-ethyl], for which the AC50 is listed as 0.8125.
As to `CN(C)CCCN1c2ccccc2Sc2ccc(Cl)cc21` [Chlorpromazine hydrochloride], the AC50 is recorded as 0.7565.
Turning to `C#CCOC(=O)[C@@H](C)Oc1ccc(Oc2ncc(Cl)cc2F)cc1` [Clodinafop-propargyl], the AC50 is 0.4557.
In the case of `CCOP(=S)(OCC)Oc1ccc2c(C)c(Cl)c(=O)oc2c1` [Coumaphos], the AC50 is on record as -0.5619.
In the case of `CC1COC(Cn2cncn2)(c2ccc(Oc3ccc(Cl)cc3)cc2Cl)O1` (centres unmarked) [Difenoconazole], the AC50 is recorded as 0.1639.
With `COc1ccc(C(=CC(=O)N2CCOCC2)c2ccc(Cl)cc2)cc1OC` [Dimethomorph], the AC50 is 0.8349.
`Cc1[nH]cnc1C[C@H]1CCc2c(C)c3ccccc3n2C1=O.Cl` [Fabesetron hydrochloride]: the AC50 is reported as 0.583.
Regarding `CCOP(=O)(NC(C)C)Oc1ccc(SC)c(C)c1` (centres unmarked) [Fenamiphos], the AC50 is 0.6838.
With `OC(c1ccc(Cl)cc1)(c1cncnc1)c1ccccc1Cl` (centres unmarked) [Fenarimol], the AC50 is listed as 0.89.
Take `N#CC(CCc1ccc(Cl)cc1)(Cn1cncn1)c1ccccc1` (centres unmarked) [Fenbuconazole]: the AC50 is on record as -0.05845.
On to `O=C(Nc1ccccc1)Nc1ccnc(Cl)c1` [Forchlorfenuron], for which the AC50 was 0.9909.
For the compound `CN(C)c1ccc(C(=C2C=CC(=[N+](C)C)C=C2)c2ccc(N(C)C)cc2)cc1` [Gentian Violet], the AC50 is 0.2591.
On to `C=CCOC(Cn1ccnc1)c1ccc(Cl)cc1Cl` (centres unmarked) [Imazalil], for which the AC50 is recorded as 0.1501.
`CC(C)NC(=O)N1CC(=O)N(c2cc(Cl)cc(Cl)c2)C1=O` [Iprodione]: the AC50 is 0.8242.
Consider `CON(C)C(=O)Nc1ccc(Cl)c(Cl)c1` [Linuron], for which the AC50 is 0.4776.
`CCOC(=O)CC(SP(=S)(OC)OC)C(=O)OCC` (centres unmarked) [Malathion]: the AC50 is recorded as 0.4737.
In the case of `CC#Cc1cc(C)nc(Nc2ccccc2)n1` [Mepanipyrim], the AC50 is recorded as -0.2464.
With `COc1nn(CSP(=S)(OC)OC)c(=O)s1` [Methidathion], the AC50 is reported as 0.6887.
With `COP(=S)(OC)Oc1ccc([N+](=O)[O-])cc1` [Methyl parathion], the AC50 is reported as 0.8544.
Take `CNc1cnn(-c2cccc(C(F)(F)F)c2)c(=O)c1Cl` [Norflurazon]: the AC50 is recorded as 0.8239.
For `CCOP(=S)(OCC)Oc1ccc([N+](=O)[O-])cc1` [Parathion], the AC50 was 0.5508.
On to `O=[N+]([O-])c1c(Cl)c(Cl)c(Cl)c(Cl)c1Cl` [Pentachloronitrobenzene], for which the AC50 is reported as -0.9415.
As for `CCOP(=S)(OCC)SCSCC` [Phorate], the AC50 is listed as 0.6456.
Turning to `CCOP(=S)(OCC)SCn1c(=O)oc2cc(Cl)ccc21` [Phosalone], the AC50 was -0.311.
Take `COP(=S)(OC)SCN1C(=O)c2ccccc2C1=O` [Phosmet]: the AC50 is 0.5339.
Take `CCCCOCCOCCOCc1cc2c(cc1CCC)OCO2` [Piperonyl butoxide]: the AC50 was 0.8015.
As to `CCCN(CCOc1c(Cl)cc(Cl)cc1Cl)C(=O)n1ccnc1` [Prochloraz], the AC50 is reported as -0.384.
For `CSc1nc(NC(C)C)nc(NC(C)C)n1` [Prometryn], the AC50 is reported as 0.888.
On to `CCNP(=S)(OC)O/C(C)=C/C(=O)OC(C)C` (centres unmarked) [Propetamphos], for which the AC50 is listed as 0.3484.
Take `CCCC1COC(Cn2cncn2)(c2ccc(Cl)cc2Cl)O1` (centres unmarked) [Propiconazole]: the AC50 was 0.9547.
As for `C#CC(C)(C)NC(=O)c1cc(Cl)cc(Cl)c1` [Propyzamide], the AC50 is 0.363.
With `COC(=O)N(OC)c1ccccc1COc1ccn(-c2ccc(Cl)cc2)n1` [Pyraclostrobin], the AC50 is on record as 0.2248.
As for `O=C(c1ccc(OCCN2CCCCC2)cc1)c1c(-c2ccc(O)cc2)sc2cc(O)ccc12` [Raloxifene hydrochloride], the AC50 is given as 0.811.
For `COC(=O)[C@H]1[C@H]2C[C@@H]3c4[nH]c5cc(OC)ccc5c4CCN3C[C@H]2C[C@@H](OC(=O)c2cc(OC)c(OC)c(OC)c2)[C@@H]1OC` [Reserpine], the AC50 is -0.938.
Turning to `C=C(C)[C@H]1Cc2c(ccc3c2O[C@@H]2COc4cc(OC)c(OC)cc4[C@@H]2C3=O)O1` [Rotenone], the AC50 is 0.8835.
Regarding `CCNc1nc(Cl)nc(NCC)n1` [Simazine], the AC50 is 0.05448.
For the compound `c1ccc2[nH]c(-c3cscn3)nc2c1` [Thiabendazole], the AC50 is given as 0.674.
With `CS/C(C)=N\OC(=O)N(C)SN(C)C(=O)O/N=C(\C)SC` [Thiodicarb], the AC50 is listed as 0.9955.
On to `CC(C)(C)C(=O)C(Oc1ccc(Cl)cc1)n1cncn1` (centres unmarked) [Triadimefon], for which the AC50 was 0.3192.
`CCCOC/C(=N\c1ccc(Cl)cc1C(F)(F)F)n1ccnc1` [Triflumizole]: the AC50 is 0.6164.
